One may read the IC50 as the concentration that inhibits the measured activity by half. Lower therefore signals higher potency.

21 molecules from patent publication US20230212144A1, “5-MEMBERED HETEROARYL DERIVATIVE CONTAINING AT LEAST ONE N, AND PHARMACEUTICAL COMPOSITION FOR PREVENTING OR TREATING MENTAL DISORDERS, CONTAINING SAME AS ACTIVE INGREDIENT” (DAEGU-GYEONGBUK MEDICAL INNOVATION FOUNDATION, priority 2020, published 2023) can be followed below.

Assay [1] deals with serotonin transporter (SERT) (Homo sapiens, UniProt P31645). The assay is described as follows: Serotonin reuptake inhibition, [3H]-5-HT, cells transfected with 5-HT transporter cDNA. Particulars: for Triple reuptake inhibition (Ratio %) SERT: compound 1 μM, relative to control without compound (100%), lower value = stronger inhibition.
Sequence of serotonin transporter (SERT) (P31645 whole entry, species assumed): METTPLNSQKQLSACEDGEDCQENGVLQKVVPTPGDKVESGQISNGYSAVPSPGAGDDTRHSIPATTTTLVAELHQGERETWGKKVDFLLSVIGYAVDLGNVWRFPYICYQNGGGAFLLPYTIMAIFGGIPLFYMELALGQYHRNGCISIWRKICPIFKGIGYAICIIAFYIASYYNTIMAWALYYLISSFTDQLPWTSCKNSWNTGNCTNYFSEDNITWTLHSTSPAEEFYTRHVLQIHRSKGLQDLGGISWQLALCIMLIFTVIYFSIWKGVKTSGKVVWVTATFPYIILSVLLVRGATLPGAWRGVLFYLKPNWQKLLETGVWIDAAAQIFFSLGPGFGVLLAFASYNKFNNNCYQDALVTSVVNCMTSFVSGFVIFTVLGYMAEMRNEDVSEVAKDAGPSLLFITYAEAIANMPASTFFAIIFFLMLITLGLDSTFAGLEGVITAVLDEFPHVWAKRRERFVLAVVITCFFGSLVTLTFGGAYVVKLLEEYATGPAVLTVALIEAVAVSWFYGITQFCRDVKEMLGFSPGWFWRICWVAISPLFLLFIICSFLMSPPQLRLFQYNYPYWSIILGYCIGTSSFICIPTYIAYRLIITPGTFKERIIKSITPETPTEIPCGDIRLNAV
Protocol: (§1) After removing the medium, each compound of Examples or Comparative Examples diluted to 1 μM in uptake buffer was added to a concentration of 200 μL/well and cultured at 37° C. for 15 minutes. 100 μL of uptake buffer containing 20-30 nM [3H]-DA was added and cultured at 37° C. for 5 minutes. The reaction solution was quickly removed and washed three times with 1 mL ice-cold uptake buffer. After dissolving the resultant in 1% SDS (0.5 mL), the degree of binding of radioisotope-labeled dopamine to the transporter was measured.
For norepinephrine(NE) and serotonin(5-HT), the degree of binding of radioisotope-labeled norepinephrine or serotonin to the transporter was measured in the same manner as above, except that cells transfected with NE or 5-HT transporter cDNA were used and [3H]-NE or [3H]-5-HT was used as a substrate.
(§2) In addition, when evaluating the reuptake inhibitory effect on dopamine, norepinephrine, and serotonin, the same method was performed without treating each compound of Examples or Comparative Examples as a control, the degree of binding of radioisotope-labeled dopamine, norepinephrine, and serotonin to the transporter was measured, and by using this as a reference (100%), the triple reuptake inhibitory effect was evaluated as a relative ratio (Ratio %). That is, in the control group, the binding of dopamine, norepinephrine, and serotonin to transporters is not inhibited, but when each compound of Examples is treated and thus the binding is inhibited, the Ratio % value decreases.
Assay [2] concerns the target norepinephrine transporter (NET) (Homo sapiens, UniProt P23975). The assay can be described thus: Norepinephrine reuptake inhibition, [3H]-NE, cells transfected with NE transporter cDNA. Particulars: for Triple reuptake inhibition (Ratio %) NET: compound 1 μM, relative to control without compound (100%), lower value = stronger inhibition.
Assay [3] deals with dopamine transporter (DAT) (Homo sapiens, UniProt Q01959). The assay is described as follows: Dopamine reuptake inhibition, [3H]-DA, HEK-293 cells transfected with dopamine transporter cDNA. To be noted: for Triple reuptake inhibition (Ratio %) DAT: compound 1 μM, relative to control without compound (100%), lower value = stronger inhibition.
Sequence of dopamine transporter (DAT) (Q01959 whole entry, species assumed): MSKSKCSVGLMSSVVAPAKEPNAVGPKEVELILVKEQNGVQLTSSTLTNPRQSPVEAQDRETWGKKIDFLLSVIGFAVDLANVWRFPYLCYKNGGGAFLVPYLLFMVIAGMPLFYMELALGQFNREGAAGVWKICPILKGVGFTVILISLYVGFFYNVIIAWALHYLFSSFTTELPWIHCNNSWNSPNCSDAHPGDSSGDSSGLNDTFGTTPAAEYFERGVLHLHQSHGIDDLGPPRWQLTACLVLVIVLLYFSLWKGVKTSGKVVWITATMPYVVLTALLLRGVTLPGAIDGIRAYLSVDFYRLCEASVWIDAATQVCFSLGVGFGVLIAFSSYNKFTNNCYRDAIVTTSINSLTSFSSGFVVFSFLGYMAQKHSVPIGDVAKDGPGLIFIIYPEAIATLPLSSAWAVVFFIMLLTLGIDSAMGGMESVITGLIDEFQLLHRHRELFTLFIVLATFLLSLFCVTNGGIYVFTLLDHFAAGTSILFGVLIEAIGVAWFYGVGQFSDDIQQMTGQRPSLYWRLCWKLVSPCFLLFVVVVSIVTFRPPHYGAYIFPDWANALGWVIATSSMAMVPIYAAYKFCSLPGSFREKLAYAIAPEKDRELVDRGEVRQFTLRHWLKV
Protocol: as §1, §2

Sequence of norepinephrine transporter (NET) (P23975 whole entry, species assumed): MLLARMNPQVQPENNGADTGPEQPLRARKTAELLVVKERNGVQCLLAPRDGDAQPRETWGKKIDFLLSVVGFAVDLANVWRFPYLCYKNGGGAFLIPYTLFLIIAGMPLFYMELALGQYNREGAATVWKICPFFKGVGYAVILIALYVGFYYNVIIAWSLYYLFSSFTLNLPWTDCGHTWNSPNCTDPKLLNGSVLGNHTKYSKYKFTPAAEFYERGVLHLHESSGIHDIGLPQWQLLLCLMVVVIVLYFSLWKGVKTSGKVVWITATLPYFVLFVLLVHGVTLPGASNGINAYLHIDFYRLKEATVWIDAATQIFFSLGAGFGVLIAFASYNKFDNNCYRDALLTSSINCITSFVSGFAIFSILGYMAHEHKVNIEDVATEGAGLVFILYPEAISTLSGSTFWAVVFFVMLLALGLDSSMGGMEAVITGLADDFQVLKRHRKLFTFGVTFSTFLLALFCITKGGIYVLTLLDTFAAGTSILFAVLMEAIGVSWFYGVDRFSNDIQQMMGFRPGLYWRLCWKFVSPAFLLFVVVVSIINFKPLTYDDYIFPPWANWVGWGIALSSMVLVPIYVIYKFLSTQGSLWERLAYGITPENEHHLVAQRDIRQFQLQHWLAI

Regarding `COc1cccc2cc(-c3nnc(CN4CCC(Cc5ccccc5)CC4)[nH]3)[nH]c12` [Example 19, 2-(5-((4-benzylpiperidin-1-yl)methyl)-4H-1,2,4-triazol-3-yl)-7-methoxy-1H-indole], in assay [1], the half-maximal inhibitory concentration (IC50) was 1170 nM and the “Triple reuptake inhibition (Ratio %) SERT” value is given as 81.23%. In assay [2], the 50% inhibitory concentration (IC50) stood at 188 nM and the “Triple reuptake inhibition (Ratio %) NET” value is 15.80%. For the same molecule, in assay [3], the IC50 turned out to be 247 nM and the “Triple reuptake inhibition (Ratio %) DAT” value is listed as 21.23%.

For the molecule `COC(=O)c1ccc2[nH]c(-c3nnc(CN4CCC(Cc5ccccc5)CC4)[nH]3)cc2c1` [Example 20, methyl 2-(5-((4-benzylpiperidin-1-yl)methyl)-4H-1,2,4-triazol-3-yl)-1H-indol-5-carboxylate], in assay [1], inhibition was half-maximal at 643 nM (IC50) and the “Triple reuptake inhibition (Ratio %) SERT” value was 50.14%. In assay [2], half-maximal inhibition (IC50) required 748 nM and the “Triple reuptake inhibition (Ratio %) NET” value came to 38.22%. Further, in assay [3], the IC50 came to 80 nM and the “Triple reuptake inhibition (Ratio %) DAT” value is on record as 5.14%.

With `c1ccc(CC2CCN(Cc3nnc(-c4ccc5ccccc5c4)[nH]3)CC2)cc1` [Example 21, 4-benzyl-1-((5-(naphthalen-2-yl)-4H-1,2,4-triazol-3-yl)methyl)piperidine], in assay [1], the IC50 came to 2090 nM and the “Triple reuptake inhibition (Ratio %) SERT” value is 50.05%. In assay [2], the IC50 was determined as 619 nM and the “Triple reuptake inhibition (Ratio %) NET” value worked out at 27.49%. In addition, in assay [3], the midpoint of inhibition, the IC50, lay at 259 nM and the “Triple reuptake inhibition (Ratio %) DAT” value was determined as 20.41%.

For the molecule `c1ccc(CC2CCN(Cc3nnc(-c4c[nH]c5ccccc45)[nH]3)CC2)cc1` [Example 22, 3-(5-((4-benzylpiperidin-1-yl)methyl)-4H-1,2,4-triazol-3-yl)-1H-indole], in assay [1], half-maximal inhibition (IC50) was put at 945 nM and the “Triple reuptake inhibition (Ratio %) SERT” value stood at 47.99%. In assay [2], the concentration for half-maximal inhibition (IC50) was determined as 644 nM and the “Triple reuptake inhibition (Ratio %) NET” value was found to be 32.07%. Further, in assay [3], the IC50 was 187 nM and the “Triple reuptake inhibition (Ratio %) DAT” value was found to be 19.30%.

As for `FC(F)(F)c1ccc2[nH]c(-c3nnc(CN4CCC(Cc5ccccc5)CC4)[nH]3)cc2c1` [Example 23, 2-(5-((4-benzylpiperidin-1-yl)methyl)-4H-1,2,4-triazol-3-yl)-5-(trifluoromethyl)-1H-indole], the “Triple reuptake inhibition (Ratio %) SERT” value in assay [1] is recorded as 125.38%. In addition, the “Triple reuptake inhibition (Ratio %) NET” value in assay [2] came to 90.00%. The “Triple reuptake inhibition (Ratio %) DAT” value in assay [3] is reported as 46.60%.

In the case of `Clc1cccc2[nH]c(-c3nnc(CN4CCC(Cc5ccccc5)CC4)[nH]3)cc12` [Example 24, 2-(5-((4-benzylpiperidin-1-yl)methyl)-4H-1,2,4-triazol-3-yl)-4-chloro-1H-indole], the “Triple reuptake inhibition (Ratio %) SERT” value in assay [1] was 109.21%. Also, the “Triple reuptake inhibition (Ratio %) NET” value in assay [2] was found to be 26.69%. In assay [3], the “Triple reuptake inhibition (Ratio %) DAT” value was 6.56%.

For `c1ccc(CC2CCN(Cc3nnc(-c4cc5ccccc5o4)[nH]3)CC2)cc1` [Example 25, 1-((5-(benzofuran-2-yl)-4H-1,2,4-triazol-3-yl)methyl)-4-benzylpiperidine], in assay [1], the “Triple reuptake inhibition (Ratio %) SERT” value stood at 73.17%. In addition, the “Triple reuptake inhibition (Ratio %) NET” value in assay [2] is reported as 76.00%. Moreover, the “Triple reuptake inhibition (Ratio %) DAT” value in assay [3] is listed as 26.92%.

As to `c1ccc(CC2CCN(Cc3nnc(-c4cc5ccccc5s4)[nH]3)CC2)cc1` [Example 26, 1-((5-(benzo[b]thiophen-2-yl)-4H-1,2,4-triazol-3-yl)methyl)-4-benzylpiperidine], the “Triple reuptake inhibition (Ratio %) SERT” value in assay [1] came out at 88.78%. Further, the “Triple reuptake inhibition (Ratio %) NET” value in assay [2] is 53.01%. In assay [3], the “Triple reuptake inhibition (Ratio %) DAT” value was found to be 26.92%.

Take `c1ccc(CC2CCN(Cc3nnc(-c4ccc5c(c4)OCO5)[nH]3)CC2)cc1` [Example 27, 1-((5-(benzo[d][1,3]dioxol-5-yl)-4H-1,2,4-triazol-3-yl)methyl)-4-benzylpiperidine]: in assay [1], the half-maximal inhibitory concentration (IC50) was determined as 968 nM and the “Triple reuptake inhibition (Ratio %) SERT” value amounted to 59.52%. Further, in assay [2], the IC50 amounted to 1990 nM and the “Triple reuptake inhibition (Ratio %) NET” value is listed as 53.55%. In assay [3], the half-inhibitory concentration (IC50) stood at 62 nM and the “Triple reuptake inhibition (Ratio %) DAT” value is reported as 9.71%.

Consider `O=C(O)c1ccc2[nH]c(-c3nnc(CN4CCC(Cc5ccccc5)CC4)[nH]3)cc2c1` [Example 28, 2-(5-((4-benzylpiperidin-1-yl)methyl)-4H-1,2,4-triazol-3-yl)-1H-indol-5-carboxylic acid], for which the “Triple reuptake inhibition (Ratio %) SERT” value in assay [1] was found to be 93.63%. Moreover, the “Triple reuptake inhibition (Ratio %) NET” value in assay [2] is on record as 85.85%. Also, the “Triple reuptake inhibition (Ratio %) DAT” value in assay [3] is recorded as 65.47%.

Regarding `Fc1ccc2[nH]c(-c3nnc(CN4CCC(Cc5ccc(Cl)c(Cl)c5)CC4)[nH]3)cc2c1` [Example 29, 2-(5-((4-(3,4-dichlorobenzyl)piperidin-1-yl)methyl)-4H-1,2,4-triazol-3-yl)-5-fluoro-1H-indole], the “Triple reuptake inhibition (Ratio %) SERT” value in assay [1] is recorded as 72.63%. Also, in assay [2], the “Triple reuptake inhibition (Ratio %) NET” value is listed as 45.28%. Moreover, the “Triple reuptake inhibition (Ratio %) DAT” value in assay [3] is listed as 36.13%.

On to `Cc1ccc2[nH]c(-c3nnc(CN4CCC(Cc5ccc(Cl)c(Cl)c5)CC4)[nH]3)cc2c1` [Example 30, 2-(5-((4-(3,4-dichlorobenzyl)piperidin-1-yl)methyl)-4H-1,2,4-triazol-3-yl)-5-methyl-1H-indole], for which the “Triple reuptake inhibition (Ratio %) SERT” value in assay [1] worked out at 88.71%. In assay [2], the “Triple reuptake inhibition (Ratio %) NET” value worked out at 96.77%. The “Triple reuptake inhibition (Ratio %) DAT” value in assay [3] turned out to be 72.11%.

For the molecule `COc1cc2cc(-c3nnc(CN4CCC(Cc5ccc(Cl)c(Cl)c5)CC4)[nH]3)[nH]c2cc1OC` [Example 31, 2-(5-((4-(3,4-dichlorobenzyl)piperidin-1-yl)methyl)-4H-1,2,4-triazol-3-yl)-5,6-dimethoxy-1H-indole], in assay [1], the IC50 turned out to be 276 nM and the “Triple reuptake inhibition (Ratio %) SERT” value came out at 32.68%. Moreover, in assay [2], the IC50 was 459 nM and the “Triple reuptake inhibition (Ratio %) NET” value is on record as 32.54%. Besides, in assay [3], half-maximal inhibition (IC50) required 204 nM and the “Triple reuptake inhibition (Ratio %) DAT” value worked out at 19.20%.

Regarding `Fc1ccc2[nH]c(-c3nnc(CN4CCC(c5c[nH]c6ccccc56)CC4)[nH]3)cc2c1` [Example 32, 2-(5-((4-(1H-indol-3-yl)piperidin-1-yl)methyl)-4H-1,2,4-triazol-3-yl)-5-fluoro-1H-indole], the “Triple reuptake inhibition (Ratio %) SERT” value in assay [1] is given as 51.31%. The “Triple reuptake inhibition (Ratio %) NET” value in assay [2] was 93.09%. Moreover, the “Triple reuptake inhibition (Ratio %) DAT” value in assay [3] amounted to 44.81%.

On to `c1ccc(CC2CCN(Cc3nnc(-c4cc5ccccc5[nH]4)o3)CC2)cc1` [Example 33, 2-((4-benzylpiperidin-1-yl)methyl)-5-(1H-indol-2-yl)-1,3,4-oxadiazole], for which the “Triple reuptake inhibition (Ratio %) SERT” value in assay [1] stood at 103.08%. Besides, the “Triple reuptake inhibition (Ratio %) NET” value in assay [2] amounted to 145.38%. Moreover, the “Triple reuptake inhibition (Ratio %) DAT” value in assay [3] is recorded as 97.72%.

Regarding `Clc1ccc(CC2CCN(Cc3nnc(-c4cc5ccccc5[nH]4)o3)CC2)cc1Cl` [Example 34, 2-((4-(3,4-dichlorobenzyl)piperidin-1-yl)methyl)-5-(1H-indol-2-yl)-1,3,4-oxadiazole], the “Triple reuptake inhibition (Ratio %) SERT” value in assay [1] was found to be 94.18%. Moreover, the “Triple reuptake inhibition (Ratio %) NET” value in assay [2] came out at 124.25%. Moreover, the “Triple reuptake inhibition (Ratio %) DAT” value in assay [3] is 90.85%.

On to `Oc1cc2cc(-c3nnc(CN4CCC(Cc5ccccc5)CC4)[nH]3)[nH]c2cc1O` [Example 35, 2-(5-((4-benzylpiperidin-1-yl)methyl)-4H-1,2,4-triazol-3-yl)-1H-indol-5,6-diol], for which, in assay [1], half-maximal inhibition (IC50) required 300 nM and the “Triple reuptake inhibition (Ratio %) SERT” value was 27.99%. In assay [2], half-maximal inhibition (IC50) required 427 nM and the “Triple reuptake inhibition (Ratio %) NET” value was 56.53%. Further, in assay [3], half-maximal inhibition (IC50) required 629 nM and the “Triple reuptake inhibition (Ratio %) DAT” value was determined as 35.65%.

Consider `COc1ccc2[nH]cc(-c3nnc(CN4CCC(Cc5ccccc5)CC4)[nH]3)c2c1` [Example 36, 3-(5-((4-benzylpiperidin-1-yl)methyl)-4H-1,2,4-triazol-3-yl)-5-methoxy-1H-indole], for which, in assay [1], the “Triple reuptake inhibition (Ratio %) SERT” value is given as 41.52%. In addition, the “Triple reuptake inhibition (Ratio %) NET” value in assay [2] stood at 85.40%. In addition, the “Triple reuptake inhibition (Ratio %) DAT” value in assay [3] is recorded as 69.78%.

In the case of `COc1cccc2c(-c3nnc(CN4CCC(Cc5ccccc5)CC4)[nH]3)c[nH]c12` [Example 37, 3-(5-((4-benzylpiperidin-1-yl)methyl)-4H-1,2,4-triazol-3-yl)-7-methoxy-1H-indole], in assay [1], the IC50 was determined as 322 nM and the “Triple reuptake inhibition (Ratio %) SERT” value stood at 27.71%. Also, in assay [2], the IC50 is 1570 nM and the “Triple reuptake inhibition (Ratio %) NET” value is reported as 79.91%. Moreover, in assay [3], it took 349 nM to reach half-maximal inhibition (IC50) and the “Triple reuptake inhibition (Ratio %) DAT” value stood at 40.29%.

As for `Cc1ccc2c(-c3nnc(CN4CCC(Cc5ccccc5)CC4)[nH]3)c[nH]c2c1` [Example 38, 3-(5-((4-benzylpiperidin-1-yl)methyl)-4H-1,2,4-triazol-3-yl)-6-methyl-1H-indole], in assay [1], inhibition was half-maximal at 518 nM (IC50) and the “Triple reuptake inhibition (Ratio %) SERT” value is on record as 51.55%. Further, in assay [2], it took 361 nM to reach half-maximal inhibition (IC50) and the “Triple reuptake inhibition (Ratio %) NET” value is 64.82%. Further, in assay [3], the 50% inhibitory concentration (IC50) came out at 670 nM and the “Triple reuptake inhibition (Ratio %) DAT” value stood at 31.70%.

For `Cc1ccc2[nH]cc(-c3nnc(CN4CCC(Cc5ccccc5)CC4)[nH]3)c2c1` [Example 39, 3-(5-((4-benzylpiperidin-1-yl)methyl)-4H-1,2,4-triazol-3-yl)-5-methyl-1H-indole], the “Triple reuptake inhibition (Ratio %) SERT” value in assay [1] came out at 58.07%. For the same molecule, the “Triple reuptake inhibition (Ratio %) NET” value in assay [2] is given as 99.14%. Also, the “Triple reuptake inhibition (Ratio %) DAT” value in assay [3] turned out to be 79.20%.
